According to EP4537820A1, “COMPOUND AND COMBINATIONS COMPRISING SAID COMPOUND TO IMPROVE IMMUNE RESPONSE” (Institut Gustave-Roussy, priority 2023, dated 2025):

Assays:
20S proteasome = test system: T1, 20S proteasome; experiment: Proteasome Activity Assay with fluorogenic AMC substrates, without REGγ; type: biochemical, human; conditions: 20S proteasome not in the presence of REGγ, even at high doses
T1 construct: purified 20S proteasome from human erythrocytes; purchased Biotechne E-360-050; host or cells: human erythrocytes
Description: Proteasome Activity Assay - The activity of the 20S and 20S-REGγ proteasomes was followed by fluorescence using the Bz-VGR-AMC (#BML-BW9375-0005, Enzo Life Sciences) substrate at 50µM for tryspin-like activity, the Suc-LLVY-AMC (#BML-P802-0005, Enzo Life Sciences) substrate at 100µM for the chemotrypsin-like activity and the Z-LLE-AMC (#BML-ZW9345-0005, Enzo Life Sciences) substrate at 100µM for the caspase-like activity. Substrates were incubated with 0,5nM of human 20S ((#E-360-050, Biotechne) and 12,5nM of human REGγ or 2nM of human REGαβ with or without compounds at different concentrations. Purified human REGγ and REGGαβ were generously provided by Julien Marcoux and Marie-Pierre Bousquet-Dubouch. Human REGγ and REGαβ were purified according to Le Feuvre et al., 2009 from plasmids kindly provided by Olivier Coux. The activity assay was performed in 96 well plates in a final volume of 80µL. Plates were read every minute for 90 minutes with a FLUOstar plate reader (BMG Labtech). To detect fluorescence, the excitation wavelength was set to 355nm and emission wavelength at 460nm. […]

REGγ = REGγ (Homo sapiens, UniProt P61289); experiment: Thermal Shift Assay (nanoDSF) with REGγ; type: binding; conditions: REGγ 500nM, compound at 40X (20µM, 0,4% DMSO)
Description: Thermal shift assay was carried out with nano differential scanning fluorimetry (nanoDSF) using the Tycho NT.6 from Nanotemper and was performed at the I2BC platform (Gif-sur-Yvette). Samples were prepared in a final volume of 25µL in a 96-well plate prior to be loaded on the Tycho capillaries. Proteins were diluted in activity buffer (20mM Tris-HCl pH 7.4 and 20mM NaCl). After optimisation, REGγ concentration was set to 500nM and 20S concentration to 50nM. Compounds concentrations were determined as ratios to protein concentration and to stay below 0,5% of DMSO; accordingly, compounds with REGγ were tested at 40X (20µM, 0,4% DMSO) and at 100X (5µM, 0,1% DMSO) with 20S. A thermal ramp was applied from 20 to 95°C and fluorescence was followed at 350nm and 330 nm, measuring intrinsic fluorescence of the proteins from tryptophan and tyrosine residues. Binding was detected as a shift in the inflection temperature (Ti) compared to the DMSO control.
To assess the efficacy of molecule 58 in directly binding to REGγ, inventors conducted a thermal shift assay (TSA). TSA leverages the property of proteins to undergo unfolding at specific temperatures, and the interaction with a ligand can alter the thermal stability, leading to a shift in the unfolding temperature. In their study, inventors examined how the compound 58 interacted with REGγ and monitored the change in melting temperature (ΔTm).

[1] = test system: human constitutive 20S proteasome (h20S); experiment: Peptide degradation assay with Fluorescamine (KH-52), 20S alone; type: biochemical; conditions: different concentrations tested, 37°C
Description: Degradation of the 52 amino acid peptide KH-52: […], Boulpicante et al.) by the 20S proteasome was followed by amino-acid group generation using Fluorescamine (#F9015, Sigma-Aldrich). The peptide substrate was incubated at 100µM with 25nM 20S, with or without 160nM REGγ and with different concentration of the tested compounds or DMSO. Assays were performed in 100µL in phosphate buffer (pH 6.8) and incubated at 37°C in a water bath for 8 hours. After 4, 6 and 8 hours, 22µL of sample were retrieved and added to 88µL of phosphate buffer before being stored at - 20°C prior to revelation. For the revelation, samples were thawed and filtered in a centrifuge 20min at 4°C 1kDa filters (#OD003C34, Pall Corporation). To avoid any amino group contamination, filtered were washed in phosphate buffer before use. 20µL of filtered-sample were plated in triplicates in a black 96-wells plate (#237108, Thermo Scientific) and 10µL of fluorescamine (1mg/mL, in 100% acetone) was added to the samples. The plate was placed on agitation for 1min before the reaction was stopped by adding 200µL of water to each well. The fluorescence intensity was measured using a FluoSTAR plate reader (BMG Labtech) with excitation wavelength at 355nm and emission wavelength at 460nm.
These findings were established through both in vitro degradation assays and T cell experiments. […]

Chain of REGγ (P61289 whole entry): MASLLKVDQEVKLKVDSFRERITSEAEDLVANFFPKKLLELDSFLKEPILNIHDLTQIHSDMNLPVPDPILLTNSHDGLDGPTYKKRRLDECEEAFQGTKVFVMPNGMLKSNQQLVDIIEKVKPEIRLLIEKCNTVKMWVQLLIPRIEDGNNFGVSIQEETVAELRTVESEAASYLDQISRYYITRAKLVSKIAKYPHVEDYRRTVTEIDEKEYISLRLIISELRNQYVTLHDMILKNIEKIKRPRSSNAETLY

inhibitory effect on the three activities (trypsin-like, caspase-like, chymotrypsin-like) (20S proteasome): did not exhibit any inhibitory effect
change in melting temperature (ΔTm) (REGγ): substantial increase in ΔTm
rate of peptide bond hydrolysis of KH-52 [1]: no impact
Structure (SMILES): Cc1ccc(N=Nc2ccc(C)cc2NC(=O)Nc2ccccc2F)cc1 [compound 58]
